Converted amounts (≈) assume the structure as drawn.

For assay [1], the system named is preformed biofilms of Gram-negative bacteria. Briefly: Inhibition of metabolic activity of preformed biofilm, summary over strains. The class given is cell-based. As to the method:
(§1) The determination of MICs was performed according to Chlumsky et al.. Briefly, 96-well flat-bottomed microtiter plates were inoculated with 75 µL (for biofilm formation) or 100 µL (for preformed biofilm) of bacterial suspension (A625nm 0.08 to 0.1) in technical triplicates and were then carefully mixed with the dilution series of the test substances (24 h cultivation at 25 °C for S. Infantis, 37 °C for other strains) or were directly cultivated to preform biofilms (18 h). For a positive control of bacterial growth, the inoculum was mixed with a pure sterile medium. Furthermore, the sterile medium was included in the plate as a marker of potential microbial contamination. To evaluate planktonic cells growth (MICPC80) and further growth of biofilm cells (MICBC80), the optical density of the content of the microtiter plates was measured spectrophotometrically at 625 nm before and after 24 h (for biofilm formation) of cultivation or before and after additional 20 h incubation with the tested compound (for preformed biofilm). […] To evaluate the inhibition of biofilm formation (MICBF80) and reduction in preformed biofilms (MICBR80), biomass was quantified using crystal violet staining, and its metabolic activity (MICBM80 and MICMPB80) was estimated by using the MTT (thiazyl tetrazolium bromide, Sigma-Aldrich, USA) reduction assay, both measured spectrophotometrically at 595 nm. […]

Assay [2] deals with Gram-negative bacteria. As to the kind of experiment: Inhibition of biofilm metabolic activity, summary over strains. The class given is cell-based. Conditions: maximal tested concentration 31.3 µg/mL. As to the method:
as §1

The subject of another assay is S. aureus 1945^GFPuvr. Further details: method as in PMID 30151647. Conditions: cited from earlier work.
Assay [3] concerns Gram-negative bacteria. As to the kind of experiment: Inhibition of biofilm formation, summary over strains. Conditions: maximal tested concentration 31.3 µg/mL. The class given is cell-based. As to the method: as §1
Assay [4] deals with Gram-negative bacteria. As to the kind of experiment: Reduction of preformed biofilm, summary over strains. The class given is cell-based. As to the method:
as §1

A further assay concerns Gram-positive bacteria. Described as above. The class given is cell-based. Conditions: Gram-positive strains other than L. monocytogenes 164. As to the method:
as §1

For assay [5], the system named is Gram-negative bacteria. Briefly: Inhibition of planktonic growth, summary over strains. The class given is cell-based. The note with it: at maximal tested concentration (RLs 1000 µg/mL, UA 31.3 µg/mL). As to the method:
as §1

In assay [6] the test system is tested food-borne pathogens. Briefly: MIC for bacterial growth, summary over all tested strains. The class given is cell-based. The note with it: this study. As to the method:
as §1

Assay [7] relates to Haemophilus influenza, Pseudomonas aeruginosa, and Streptococcus pneumoniae. More on the design: method as in PMID 29234086, PMID 31022884, PMID 27492531. Conditions: clinical pathogens; cited from earlier work.
Assay [8] shares this test system. More on the design: method as in PMID 29234086, PMID 31022884, PMID 27492531. Conditions: clinical pathogens; cited from earlier work. The source holds these as a separate data set.
The next assay concerns S. aureus 816. Briefly: MIC for further growth of biofilm cells, preformed biofilm (A625nm). The class given is cell-based, Staphylococcus aureus. The note with it: ≥80% inhibition, 18 h preformed biofilm, 20 h with substance. The procedure:
Ten concentrations of NAC, RLs, and UA were tested to determine the minimum inhibitory concentration for planktonic growth, and subsequently, the six highest concentrations were applied on preformed biofilms to evaluate the biofilm eradication ability of the compounds. MIC was defined as the lowest substance concentration able to inhibit at least 80% of microbial growth (MICPC80 for planktonic cells, MICBC80 for further growth of biofilm cells), inhibit 80% of metabolic activity (MICBM80 for biofilm metabolic activity, MICMPB80 for metabolic activity of preformed biofilm), prevent biofilm formation by at least 80% (MICBF80 for biofilm formation), or reduce a preformed biofilm by at least 80% (MICBR80 for biofilm reduction). The results of MICs are summarized in Table 1 (planktonic cells) and Table 2 (biofilm-associated cells).
The determination of MICs was performed according to Chlumsky et al.. […] To evaluate planktonic cells growth (MICPC80) and further growth of biofilm cells (MICBC80), the optical density of the content of the microtiter plates was measured spectrophotometrically at 625 nm before and after 24 h (for biofilm formation) of cultivation or before and after additional 20 h incubation with the tested compound (for preformed biofilm). […] To evaluate the inhibition of biofilm formation (MICBF80) and reduction in preformed biofilms (MICBR80), biomass was quantified using crystal violet staining, and its metabolic activity (MICBM80 and MICMPB80) was estimated by using the MTT (thiazyl tetrazolium bromide, Sigma-Aldrich, USA) reduction assay, both measured spectrophotometrically at 595 nm.
All inhibitions were calculated using the formula of Chlumsky et al. below (Equation (1)):(1) A625(595)nm inhibition (%)=A625(595)nm (control) – A625(595)nm(natural substance)/A625(595)nm (control)× 100 where A625(595)nm (control) is the absorbance of bacterial suspension/biofilm itself, and A625(595)nm(natural substance) is the absorbance of the bacterial suspension/biofilm with the added natural substance (NAC, RLs, and UA). […]

Turning to `CC(=O)c1c(O)c(C)c(O)c2c1OC1=CC(=O)C(C(C)=O)C(=O)C12C` (single isomer, unassigned; (+)) [UA, (+)-usnic acid], in assay [1], the “maximum observed inhibition of metabolic activity of preformed biofilm” value was “up to 53%”. Also, in the assay on Gram-negative bacteria [2], the “maximum inhibition (MICBM80), range over strains” value is reported as 16–47%. Also, the “minimal inhibition concentration, bacterial growth” value in the assay on S. aureus 1945^GFPuvr is listed as 32 µg/mL (≈ 92.9 µM). Besides, the “maximum inhibition (MICBF80), range over strains” value in the assay with Gram-negative bacteria [3] is recorded as 10–47%. Moreover, the “maximum observed reduction of preformed biofilm” value in the assay on Gram-negative bacteria [4] is reported as “up to 30%”. Besides, the “maximum observed reduction of preformed biofilm, range over strains” value in the assay on Gram-positive bacteria is given as 35–72%. Moreover, the “maximum inhibition of planktonic growth (MICPC80), range over strains” value with Gram-negative bacteria [5] is 20–42%.
With `CC(=O)N[C@@H](CS)C(=O)O` [NAC, N-Acetyl-L-cysteine], the “MIC for bacterial growth, range over strains” value in assay [6] is recorded as 3130–12,500 µg/mL. In addition, in assay [7], the “MIC against bacterial growth” value was 500 to 2500 µg/mL. Also, the “MIC needed for biofilm reduction” value in assay [8] was 2500–10,000 µg/mL. The compound also came in with an MICBC80 in the assay with S. aureus 816 of 3130 µg/mL.

Source of the values: paper PMC8583417, “Evaluation of the Antimicrobial Efficacy of N-Acetyl-L-Cysteine, Rhamnolipids, and Usnic Acid—Novel Approaches to Fight Food-Borne Pathogens” (International Journal of Molecular Sciences, 2021).
